Data on one compound can be found in US6596702B2, “Compositions for use in rehydration and nutrition during athletic exercise and methods of making same” (Elan Drug Delivery Limited, priority 1994, dated 2003).

Series [1] can be described thus: Osmolarity of aqueous trehalose solution (Roebling Micro-Osmometer). Format: physicochemical. The protocol: 5.0 to 11.34 g of trehalose dihydrate is dry blended at an rpm greater than 18,000 until the consistency of is a uniform powder. Thereafter, the trehalose dihydrate is dissolved in distilled deionized water to a final volume of 100 mL and an osmolarity of 300 mOsm or less. For 11.34 g of trehalose the measured value was 287 mOsm. Measurement of the osmolarity of the final mixture is made on a Roebling Micro-Osmometer.

A short description of series [2]: Blood glucose levels with trehalose as carbohydrate source in a sports beverage. Format: in vivo. To be noted: trehalose as primary carbohydrate source in sports beverages.
Series [3] can be described thus: Tolerability of trehalose. Format: in vivo. To be noted: humans.

On to `OC[C@H]1O[C@H](O[C@H]2O[C@H](CO)[C@@H](O)[C@H](O)[C@H]2O)[C@H](O)[C@@H](O)[C@@H]1O` [trehalose, α-D-glucopyranosyl-α-D-glucopyranoside], for which the osmolarity is recorded as 1665 mOsm in series [1] (1 molar solution of trehalose) and 300 mOsm in series [1] (11.34 g trehalose dihydrate in distilled deionized water, final volume 100 mL, stated isotonic value). In series [1] (11.34 g trehalose dihydrate dissolved in distilled deionized water to a final volume of 100 mL), the “osmolarity, measured value” is 287 mOsm. Moreover, in series [2], the “blood glucose levels over that of glucose alone” value is given as “two-fold”. In addition, the tolerability entry in series [3] is on record as “well tolerated”.
